Source: patent US10781183B2, “Small molecule inducers of reactive oxygen species and inhibitors of mitochondrial activity” (The Regents of the University of Michigan, priority 2016, dated 2020)
Like-named read-outs stand apart in the source and are kept apart here.

What was measured:
BxPC-3 cells = test: MTT cytotoxicity assay, BxPC-3; assay type: cell-based; conditions: Homo sapiens, three independent experiments
Method: (§1) MiaPaCa-2, Panc-1 and BxPC-3 pancreatic cancer cell lines were obtained from the ATCC. Normal pancreatic cells HPDE and HPNE were kindly provided (Translational Oncology Program, University of […], Ann Arbor, Mich.). Gemcitabine resistant cell line MiaPaCa-2-GR (gemcitabine resistant) was kindly provided (Department of Pathology, Wayne State University, Detroit, Mich.). All cell lines were cultured as monolayer and maintained in RPMI1640 supplemented with 10% fetal bovine serum (FBS) in a humidified atmosphere with 5% CO2 at 37° C. MiaPaCa-2-GR culture was supplemented with 200 nM gemcitabine.
(§2) Cytotoxicity of compounds was evaluated with 3-(4,5-dimethylthiazol-2-yl)-2,5-diphenyltetrazolium bromide (MTT) assay. Cells were placed in 96-well plate at 3000-8000 cells/well. After overnight attachment, compounds were added to the wells at sequential dilutions (30 nM-10 μM for most cell lines). After 72 h treatment, MTT was added into the media to a final concentration of 300 μg/mL. Cells were incubated for 3 h at 37° C., and the insoluble formazan converted by viable cells were dissolved in 150 μL of DMSO. Absorbance at 570 nm was read by microplate reader (Molecular devices, Sunnyvale, Calif.), and inhibition of cell proliferation was calculated using the following formula: Inhibition of cell proliferation (%)=(1−ODtreatment/ODcontrol)×100%

MiaPaCa-2 cells = test: MTT cytotoxicity assay, MiaPaCa-2; assay type: cell-based; conditions: Homo sapiens, MTT assay, Mean ± SD, three independent experiments
Method: as §1, §2

Panc-1 cells = test: MTT cytotoxicity assay, Panc-1; assay type: cell-based; conditions: Homo sapiens, three independent experiments
Method: as §1, §2

[1] = BXPC-3, 72 h, Table 1, 72 h, Mean ± SD
[2] = BXPC-3, Table 2, Mean ± SD, read-out: IC 50 BxPC-3
[3] = MIA PaCa-2, 72 h, Table 1, 72 h
[4] = MIA PaCa-2, Table 2, read-out: IC 50 MiaPaCa-2
[5] = PANC-1, 72 h, Table 1, 72 h, Mean ± SD
[6] = PANC-1, Table 2, Mean ± SD, read-out: IC 50 Panc-1

melting point [°C]	Structure (SMILES)	IC50 (BxPC-3 cells; [1]) [µM]	IC50 (BxPC-3 cells; [2]) [µM]	IC50 (MiaPaCa-2 cells; [3]) [µM]	IC50 (MiaPaCa-2 cells; [4]) [µM]	IC50 (Panc-1 cells; [5]) [µM]	IC50 (Panc-1 cells; [6]) [µM]
–	COc1cc(NC2=CC(=O)c3ncncc3C2=O)cc(OC)c1 [QD357, 6-((3,5-dimethoxyphenyl)amino)quinazoline-5,8-dione]	16.3 ± 1.5	16.3 ± 1.5	7.7 ± 2	7.7 ± 2	7.2 ± 0.8	7.2 ± 0.8
203	O=C1C(NCc2ccc(F)cc2)=CC(=O)c2ncncc21 [QD356, 6-((4-fluorobenzyl)amino)quinazoline-5,8-dione]	1.4 ± 0.2	1.4 ± 0.2	1.7 ± 0.2	1.7 ± 0.2	1 ± 0.1	1 ± 0.1
270 to 272	COc1ccc(-c2ccc(NC3=CC(=O)c4ncncc4C3=O)cc2)cc1 [QD336, 6-((4′-methoxy[1,1′-biphenyl]-4-yl)amino)quinazoline-5,8-dione]	3.5 ± 0.5	3.5 ± 0.5	2.1 ± 0.5	2.1 ± 0.5	2.3 ± 0.3	2.3 ± 0.3
–	O=C(NCCC[P+](c1ccccc1)(c1ccccc1)c1ccccc1)c1ccc(NC2=CC(=O)c3ncncc3C2=O)cc1 [QD340, (3-(4-((5,8-dioxo-5,8-dihydroquinazolin-6-yl)amino)benzamido)propyl) triphenylphosphonium bromide]	21.5 ± 2.3	21.5 ± 2.3	15.3 ± 2.5	15.3 ± 2.5	11.7 ± 1.5	11.7 ± 1.5
114	O=C1C(Nc2ccc(OC(F)(F)F)cc2)=CC(=O)c2ncncc21 [QD327, 6-((4-(trifluoromethoxy)phenyl)amino)quinazoline-5,8-dione]	0.9 ± 0.1	0.9 ± 0.1	1.4 ± 0.2	1.4 ± 0.2	0.9 ± 0.1	0.9 ± 0.1
–	COc1ccc(NC2=CC(=O)c3ncncc3C2=O)cc1OC [QD355, 6-((3,4-dimethoxyphenyl)amino)quinazoline-5,8-dione]	1.5 ± 0.2	1.5 ± 0.2	1.8 ± 0.1	1.8 ± 0.1	0.9 ± 0.3	0.9 ± 0.3
–	O=C1C(Nc2ccc(CO)cc2)=CC(=O)c2ncncc21 [QD329, 6-((4-(hydroxymethyl)phenyl)amino)quinazoline-5,8-dione]	2.7 ± 0.3	5.7 ± 0.3	3.5 ± 1.3	3.5 ± 1.3	1 ± 0.2	1 ± 0.2
169 to 171	O=C1C(Nc2ccc(Oc3ccccc3)cc2)=CC(=O)c2ncncc21 [QD324, 6-((4-phenoxyphenyl)amino)quinazoline-5,8-dione]	3.6 ± 0.4	3.6 ± 0.4	3.7 ± 0.7	3.7 ± 0.7	1.8 ± 0.2	1.8 ± 0.2
285 to 289	O=C1C(Nc2ccc(-c3ccc(F)cc3)cc2)=CC(=O)c2ncncc21 [QD334, 6-((4′-fluoro-[1,1′-biphenyl]-4-yl)amino)quinazoline-5,8-dione]	4.4 ± 0.9	4.4 ± 0.9	3.5 ± 1	3.5 ± 1	3.2 ± 0.8	3.2 ± 0.8
> 320	Nc1ccc(-c2ccc(NC3=CC(=O)c4ncncc4C3=O)cc2)cc1 [QD337, 6-((4′-amino-[1,1′-biphenyl]-4-yl)amino)quinazoline-5,8-dione]	3.5 ± 0.6	3.5 ± 0.6	2.5 ± 0.2	2.5 ± 0.2	3.7 ± 0.1	3.7 ± 0.1
208 to 210	O=C1C(Nc2cccc(B(O)O)c2)=CC(=O)c2ncncc21 [QD333, (3-((5,8-dioxo-5,8-dihydroquinazolin-6-yl)amino)phenyl)boronic acid]	> 10	> 10	> 10	> 10	9 ± 1	9 ± 1
260 to 261	O=C1C(Nc2ccc(-c3cc(Cl)cc(Cl)c3)cc2)=CC(=O)c2ncncc21 [QD387, 6-(3′,5′-Dichlorobiphenyl-4-ylamino)quinazoline-5,8-dione]	–	–	–	–	–	–
217	O=C1C(Nc2cccc3c2-c2ccccc2C3)=CC(=O)c2ncncc21 [QD390, 6-(9H-Fluoren-4-ylamino)quinazoline-5,8-dione]	–	–	–	–	–	–
236 to 237	O=C1C(Nc2ccc3c(c2)Cc2ccccc2-3)=CC(=O)c2ncncc21 [QD391, 6-(9H-Fluoren-2-ylamino)quinazoline-5,8-dione]	–	–	–	–	–	–
238	COc1ccc(NC2=CC(=O)c3ncncc3C2=O)cc1 [QD354, 6-((4-methoxyphenyl)amino)quinazoline-5,8-dione]	1.7 ± 0.2	1.7 ± 0.2	1.9 ± 0.2	1.9 ± 0.2	0.8 ± 0.2	0.8 ± 0.2
> 320	NS(=O)(=O)c1ccc(NC2=CC(=O)c3ncncc3C2=O)cc1 [QD328, 4-((5,8-dioxo-5,8-dihydroquinazolin-6-yl)amino)benzenesulfonamide]	> 10	> 10	> 10	> 10	> 10	> 10
209	O=C1C(Nc2ccc(N3CCCCC3)cc2)=CC(=O)c2ncncc21 [QD388, 6-(4-(Piperidin-1-yl)phenylamino)quinazoline-5,8-dione]	–	–	–	–	–	–
239	O=C1C(Nc2ccc(-c3ccccn3)cc2)=CC(=O)c2ncncc21 [QD395, 6-(4-(Pyridin-2-yl)phenylamino)quinazoline-5,8-dione]	–	–	–	–	–	–
> 320	O=C1C=CC(=O)c2ncncc21 [QD323, quinazoline-5,8-dione]	–	–	–	–	–	–
292 to 293	O=C1C(Nc2ccc(-c3ccc(Cl)cc3)cc2)=CC(=O)c2ncncc21 [QD386, 6-(4′-Chlorobiphenyl-4-ylamino)quinazoline-5,8-dione]	–	–	–	–	–	–
247	CCc1ccc(-c2ccc(NC3=CC(=O)c4ncncc4C3=O)cc2)cc1 [QD392, 6-(4′-Ethylbiphenyl-4-ylamino)quinazoline-5,8-dione]	–	–	–	–	–	–
282 to 283	Cc1ccc(-c2ccc(NC3=CC(=O)c4ncncc4C3=O)cc2F)cc1 [QD338, 6-((2-fluoro-4′-methyl-[1,1′-biphenyl]-4-yl)amino)quinazoline-5,8-dione]	5 ± 0.7	5 ± 0.7	4.6 ± 1.1	4.6 ± 1.1	4.8 ± 0.1	4.8 ± 0.1
226 to 230	COC(=O)c1ccc(NC2=CC(=O)c3ncncc3C2=O)cc1 [QD331, Methyl 4-((5,8-dioxo-5,8-dihydroquinazolin-6-yl)amino)benzoate]	5.8 ± 0.3	5.8 ± 0.3	2.2 ± 0.4	2.2 ± 0.4	1.1 ± 0.4	1.1 ± 0.4
234	O=C1C(Nc2ccc(C3CCCCC3)cc2)=CC(=O)c2ncncc21 [QD393, 6-(4-Cyclohexylphenylamino)quinazoline-5,8-dione]	–	–	–	–	–	–
142	COc1cccc(NC2=CC(=O)c3ncncc3C2=O)c1 [QD353, 6-((3-methoxyphenyl)amino)quinazoline-5,8-dione]	1.8 ± 0.1	1.8 ± 0.1	1.8 ± 0.3	1.8 ± 0.3	0.6 ± 0.1	0.6 ± 0.1
–	O=C(NCCC[P+](c1ccccc1)(c1ccccc1)c1ccccc1)c1cccc(NC2=CC(=O)c3ncncc3C2=O)c1 [QD359, (3-(3-((5,8-dioxo-5,8-dihydroquinazolin-6-yl)amino)benzamido)propyl) triphenylphosphonium bromide]	21.3 ± 2.5	21.3 ± 2.5	16.3 ± 3.6	16.3 ± 3.5	14.3 ± 1.5	14.3 ± 1.5
> 320	NC(=O)c1ccc(NC2=CC(=O)c3ncncc3C2=O)cc1 [QD330, 4-((5,8-dioxo-5,8-dihydroquinazolin-6-yl)amino)benzamide]	> 10	> 10	8 ± 0.9	8 ± 0.9	6.3 ± 0.3	6.3 ± 0.3
226 to 227	O=C1C(Nc2ccc(N3CCOCC3)cc2)=CC(=O)c2ncncc21 [QD389, 6-(4-Morpholinophenylamino)quinazoline-5,8-dione]	–	–	–	–	–	–
199 to 200	O=C1C(Nc2cccc(-c3ccccc3)c2)=CC(=O)c2ncncc21 [QD385, 6-(Biphenyl-3-ylamino)quinazoline-5,8-dione]	–	–	–	–	–	–
203 to 205	Nc1ccc(C(=O)NCCC[P+](c2ccccc2)(c2ccccc2)c2ccccc2)cc1.[Br-] [QD339, (3-(4-aminobenzamido)propyl) triphenylphosphonium bromide]	–	> 30	–	> 30	> 30	> 30
